Measurements published in patent US10188743B2, “Cytisine-linked isoflavonoid antineoplastic agents for the treatment of cancer” (UNIVERSITY OF KENTUCKY RESEARCH FOUNDATION, priority 2016, dated 2019).

Assays:
[1] = test system: AMPK; experiment: AMPK activation (levels of phosphorylated AMPK, Western blotting); format: cell-based
Experimental: (§1) Biochemistry. Western blotting: Cells were lysed in the appropriate volume of lysis buffer (50 mM HEPES, 100 mM NaCl, 2 mM EDTA, 1% glycerol, 50 mM NaF, 1 mM Na3VO4, 1% Triton X-100, with protease inhibitors). The following antibodies were used: HSD17B4 (GeneTex, GTX103864), AMPK (Cell Signaling, 2532), pAMPK (Cell Signaling, 2535), ACC (Cell Signaling, 3676), pACC (Cell Signaling, 11818), p^70 (Cell Signaling, 2708), p-p^70 (Cell Signaling, 9914), S6 (Cell Signaling, 2217), pS6 (Cell Signaling, 4858), MCCA (GeneTex, GTX110062), tubulin (Hybridoma Bank, E7), Actin (Sigma, A1978), His-tag (BD Pharmingen, 552564).

[2] = test system: acetyl CoA carboxylase (ACC); experiment: ACC phosphorylation / activation downstream of AMPK (Western blotting); format: cell-based
Experimental: as §1

[3] = test system: HSD17B4; experiment: Streptavidin-bead pull-down from LS174T cell lysates, validated by Western blot; format: binding
Experimental: (§2) Identification of the direct target of these AMPK activators involved incubation of 15d with LS174T cell lysates and a subsequent pull-down assay using biotinylated 15d bound to streptavidin beads. The binding proteins were eluted with 2.5 mM biotin and analyzed by 4-12% SDS-PAGE gel using colloidal blue staining (FIG. 2D). We identified two specific bands (F1 and F2) in the 15d-containing sample compared with the control samples containing only beads or only beads and biotin. These two bands were excised from gels and analyzed by NanoLC-ESI-MS/MS. The band F1 (FIG. 2D) contained two proteins: [1] peroxisomal hydroxysteroid 17-dehydrogenase-4 (HSD17B4); and [2] mitochondrial methylcrotonoyl-CoA carboxylase subunit alpha (MCCA). The band F2 also matched HSD17B4.
(§3) The multifunctional nature of HSD17B4 included two of the four enzymatic activities required for the beta-oxidation of very long-chain fatty acids (VLCFA) in the peroxisome. […] The HSD17B4 antibody (GeneTex) recognized the full-length and the C-terminal fragment (FIG. 2E).
(§4) Streptavidin-agarose pulldown: Biotinylated compound 15d (FIG. 2A) was incubated with cell lysates and streptavidin beads. The binding proteins were pulled down and analyzed by 4-12% SDS-PAGE as described previously. […]

[4] = biological target: T1, MCCA (Homo sapiens, UniProt Q96RQ3); experiment: as above; format: binding
T1 construct: endogenous in cells; host or cells: LS174T colon cancer cells
T1 sequence (Q96RQ3 42-725): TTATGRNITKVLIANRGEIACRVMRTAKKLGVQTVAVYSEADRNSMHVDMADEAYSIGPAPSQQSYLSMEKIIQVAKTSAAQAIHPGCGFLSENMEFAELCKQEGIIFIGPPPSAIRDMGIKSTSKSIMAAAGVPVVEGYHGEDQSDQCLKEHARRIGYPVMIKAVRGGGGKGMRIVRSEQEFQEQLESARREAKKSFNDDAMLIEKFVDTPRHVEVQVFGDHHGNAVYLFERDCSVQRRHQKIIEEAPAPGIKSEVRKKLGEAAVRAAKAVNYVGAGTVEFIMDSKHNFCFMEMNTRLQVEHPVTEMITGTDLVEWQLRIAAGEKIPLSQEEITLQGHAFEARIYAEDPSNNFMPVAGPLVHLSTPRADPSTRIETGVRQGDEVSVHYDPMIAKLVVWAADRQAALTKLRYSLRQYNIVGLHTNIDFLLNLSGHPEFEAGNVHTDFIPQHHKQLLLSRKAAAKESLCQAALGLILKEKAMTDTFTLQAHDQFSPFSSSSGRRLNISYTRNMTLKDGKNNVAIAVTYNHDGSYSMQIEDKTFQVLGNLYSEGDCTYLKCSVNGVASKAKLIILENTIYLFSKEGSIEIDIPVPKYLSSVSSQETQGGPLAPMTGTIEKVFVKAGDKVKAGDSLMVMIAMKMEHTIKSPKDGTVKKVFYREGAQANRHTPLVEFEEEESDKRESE
Experimental: as §2, §3, §4

[5] = biological target: T2, HSD17B4 (full-length and truncated constructs) (Homo sapiens, UniProt P51659); experiment: Streptavidin bead-based pull-down with purified full-length and truncated HSD17B4 constructs; format: binding; settings: purified protein from E. coli
T2 construct: His-tag; made in house; host or cells: E. coli BL21 (pET28)
T2 sequence (P51659 1-736): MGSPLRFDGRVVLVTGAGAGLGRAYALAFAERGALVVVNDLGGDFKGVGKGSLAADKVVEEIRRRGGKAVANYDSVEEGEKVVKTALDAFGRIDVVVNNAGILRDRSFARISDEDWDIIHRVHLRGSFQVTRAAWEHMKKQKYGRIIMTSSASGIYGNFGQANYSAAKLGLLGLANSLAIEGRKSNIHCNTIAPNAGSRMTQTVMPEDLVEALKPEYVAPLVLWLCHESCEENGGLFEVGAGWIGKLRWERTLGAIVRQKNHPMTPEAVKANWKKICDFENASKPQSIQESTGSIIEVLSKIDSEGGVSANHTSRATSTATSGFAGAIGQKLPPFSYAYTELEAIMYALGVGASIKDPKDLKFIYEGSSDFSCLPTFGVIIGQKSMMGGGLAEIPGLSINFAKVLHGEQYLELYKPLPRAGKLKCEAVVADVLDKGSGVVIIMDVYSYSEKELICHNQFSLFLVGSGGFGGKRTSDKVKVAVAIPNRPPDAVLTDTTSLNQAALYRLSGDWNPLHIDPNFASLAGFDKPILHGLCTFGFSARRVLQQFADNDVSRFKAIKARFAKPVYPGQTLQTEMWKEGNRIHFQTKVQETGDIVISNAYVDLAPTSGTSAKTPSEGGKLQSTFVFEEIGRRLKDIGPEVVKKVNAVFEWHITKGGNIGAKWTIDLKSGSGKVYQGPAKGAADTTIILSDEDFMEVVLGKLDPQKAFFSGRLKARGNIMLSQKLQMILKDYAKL
Source text: (§5) We next sought to delineate if these cystisine-linked isoflavonoid inhibitors were selective for one of the two enzymatic activities, either the α,β-dehydrogenase or hydratase activity, found in HSD17B4. We generated a panel of truncated HSD17B4 constructs and purified these truncated proteins as well as the full-length protein from E. coli (FIG. 3A). We evaluated the binding of 15d to these constructs using the streptavidin bead-based pull-down assay.
(§6) Streptavidin-agarose pulldown: Biotinylated compound 15d (FIG. 2A) was incubated with cell lysates and streptavidin beads. The binding proteins were pulled down and analyzed by 4-12% SDS-PAGE as described previously. The protein bands were identified by NanoLC-ESI-MS/MS at ProtTech Inc. For binding and enzymatic assays, His-tagged HSD17B4 constructs were clone and truncated by PCR using pET28. The full-length and truncated proteins were purified from bacteria BL21.

[6] = test system: HSD17B4 (full-length and truncated constructs); experiment: as above; format: binding; settings: purified protein from E. coli
Source text: as §5, §6

Row | SMILES | AMPK-fold Activation (10 μM) [1] [fold] | AMPK activation (in words) [1] | melting point [°C] | further results
1 | COc1ccc(-c2coc3cc(OCCN4C[C@@H]5C[C@H](C4)c4cccc(=O)n4C5)ccc3c2=O)cc1 [Compound 10b, (1R,5S)-3-(2-((3-(4-Methoxyphenyl)-4-oxo-4H-chromen-7-yl)oxy)ethyl)-3,4,5,6-tetrahydro-1H-1,5-methanopyrido[1,2-a][1,5]diazocin-8(2H)-one] | 9.9 |  |  | 
2 | O=C(CCCCOc1ccccc1)CN1C[C@@H]2C[C@@H](C1)c1cccc(=O)n1C2 [Compound 17, (1S,5S)-3-(2-oxo-6-phenoxyhexyl)-3,4,5,6-tetrahydro-1H-1,5-methanopyrido[1,2-a][1,5]diazocin-8(2H)-one] |  | inactive |  | 
3 | O=c1c(-c2ccc(Cl)cc2)coc2cc(O)ccc12 [Compound 3c, 3-(4-Chlorophenyl)-7-hydroxy-4H-chromen-4-one] |  | most active AMPK activators |  | activation of acetyl CoA carboxylase [2]: modest activation
4 | Cc1oc2cc(OCCCCC(CN3C[C@@H]4C[C@@H](C3)c3cccc(=O)n3C4)=NNC(=O)CCOCCOCCOCCOCCNC(=O)CCCC[C@@H]3SCC4NC(=O)NC43)ccc2c(=O)c1-c1ccc(Cl)cc1 (stereo partly drawn) [Compound 15d, N-(22-((3-(4-chlorophenyl)-2-methyl-4-oxo-4H-chromen-7-yl)oxy)-15-oxo-18-(((1S,5S)-8-oxo-1,5,6,8-tetrahydro-2H-1,5-methanopyrido[1,2-a][,5]diazocin-3(4H)-yl)methyl)-3,6,9,12-tetraoxa-16,17-diazadocos-17-en-1-yl)-5-((4S)-2-oxohexahydro-1H-thieno[3,4-d]imidazol-4-yl)pentanamide] |  |  |  | binding of HSD17B4 in pull-down [3]: specific binding protein; binding of MCCA in pull-down [4]: non-specific binding protein; interaction with full-length HSD17B4 [5]: interacted; binding to N-terminus-truncated fragment C919 [6]: strongly bound; interaction with C-terminus-truncated fragment N634 [6]: not the C-terminus-truncated fragments N318 and N634, interacted
5 | O=c1c(-c2ccccc2)coc2cc(OCCN3C[C@@H]4C[C@H](C3)c3cccc(=O)n3C4)ccc12 [Compound 10a, (1R,5S)-3-(2-((4-Oxo-3-phenyl-4H-chromen-7-yl)oxy)ethyl)-3,4,5,6-tetrahydro-1H-1,5-methanopyrido[1,2-a][1,5]diazocin-8(2H)-one] | 3.6 |  | 197 to 198 | 
6 | O=c1cccc2n1C[C@H]1C[C@H]2CN(CC(O)CCCCOc2ccccc2)C1 (stereo partly drawn) [Compound 16, (1S,5S)-3-(2-Hydroxy-6-phenoxyhexyl)-3,4,5,6-tetrabydro-1H-1,5-methanopyrido[1,2-a][1,5]diazocin-8(2H)-one] |  | inactive |  | 
7 | Cc1oc2cc(OCCN3C[C@@H]4C[C@H](C3)c3cccc(=O)n3C4)ccc2c(=O)c1-c1ccc(Cl)cc1 [Compound 10d, (1R,5S)-3-(2-((3-(4-Chlorophenyl)-2-methyl-4-oxo-4H-chromen-7-yl)oxy)ethyl)-3,4,5,6-tetrahydro-1H-1,5-methanopyrido[1,2-a][1,5]diazocin-8(2H)-one] | 2.2 |  | 186 to 187 | 
8 | Cc1oc2cc(O)ccc2c(=O)c1-c1ccc(Cl)cc1 [Compound 3d, 3-(4-Chlorophenyl)-7-hydroxy-2-methyl-4H-chromen-4-one] |  | most active AMPK activators | 277 to 278 | activation of acetyl CoA carboxylase [2]: modest activation
